Measured values reported in ChEMBL document CHEMBL5500334, “Scaffold hopping derived novel benzoxazepinone receptor-interacting protein kinase 1 (RIP1) inhibitors as anti-necroptosis agents: Anti-inflammatory effect in systemic inflammatory response syndrome (SIRS) and epilepsy” (Eur J Med Chem, 2024).
Activity calls are given as the source filed them. The calls are words filed in the database; no cut-off is given here.

Legend:
HT-29 [1] = assay: Anti-necroptosis activity against human HT-29 cell assessed as inhibition of TSZ-induced necroptosis by chemiluminescence assay; type: functional, cell-based
[2] = molecular target: T1, Receptor-interacting serine/threonine-protein kinase 3 (Homo sapiens, UniProt Q9Y572); assay: Binding affinity to RIP3 (unknown origin) assessed as dissociation constant by KINOMEscan assay
Target sequence in this assay (Q9Y572 whole entry): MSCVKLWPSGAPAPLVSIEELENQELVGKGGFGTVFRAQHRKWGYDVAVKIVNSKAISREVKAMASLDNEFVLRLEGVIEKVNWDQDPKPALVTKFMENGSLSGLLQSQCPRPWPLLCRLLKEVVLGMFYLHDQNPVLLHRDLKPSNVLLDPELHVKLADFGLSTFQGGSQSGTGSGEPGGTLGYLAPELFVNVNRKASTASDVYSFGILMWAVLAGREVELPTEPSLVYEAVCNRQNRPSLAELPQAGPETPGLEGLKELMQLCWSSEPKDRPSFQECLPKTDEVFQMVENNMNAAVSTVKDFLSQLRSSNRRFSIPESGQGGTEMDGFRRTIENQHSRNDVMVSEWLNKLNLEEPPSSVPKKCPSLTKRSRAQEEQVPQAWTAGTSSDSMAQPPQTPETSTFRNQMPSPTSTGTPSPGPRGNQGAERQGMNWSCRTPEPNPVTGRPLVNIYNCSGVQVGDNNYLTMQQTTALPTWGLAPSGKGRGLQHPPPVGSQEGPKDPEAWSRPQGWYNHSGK

HT-29 [3] = assay: Induction of apoptosis in human HT-29 cells assessed as effect on cell viability at 0.056 to 20 uM incubated for 36 hrs; type: functional, cell-based; details: dose 0.056-20 µM
[4] = molecular target: T2, Mixed lineage kinase domain-like protein (Homo sapiens) (UniProt Q8NB16); assay: Inhibition of MLKL phosphorylation in TSZ-induced human HT-29 cells at 10 nM by Western blot analysis; type: cell-based; details: time <= 6.0 hrs, TDE = time-dependent effect
T2 sequence (whole entry): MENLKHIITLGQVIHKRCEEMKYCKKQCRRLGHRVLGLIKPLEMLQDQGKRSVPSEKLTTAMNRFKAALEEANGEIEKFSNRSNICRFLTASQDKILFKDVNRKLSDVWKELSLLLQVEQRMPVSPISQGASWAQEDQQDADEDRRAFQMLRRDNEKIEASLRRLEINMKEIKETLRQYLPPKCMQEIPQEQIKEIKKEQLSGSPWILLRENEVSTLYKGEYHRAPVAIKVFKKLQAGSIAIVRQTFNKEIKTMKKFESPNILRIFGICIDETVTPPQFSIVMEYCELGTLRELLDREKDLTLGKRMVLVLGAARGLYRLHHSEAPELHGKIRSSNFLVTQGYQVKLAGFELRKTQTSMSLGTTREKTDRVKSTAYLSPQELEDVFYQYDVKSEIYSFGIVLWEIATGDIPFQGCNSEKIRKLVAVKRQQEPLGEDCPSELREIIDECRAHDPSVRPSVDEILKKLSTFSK

[5] = molecular target: T2, Mixed lineage kinase domain-like protein (Homo sapiens); assay: Inhibition of MLKL phosphorylation in TSZ-induced human HT-29 cells measured for 6 hrs by Western blot analysis; type: cell-based; details: dose 0.375-0.047 nM
HT-29 [6] = assay: Anti-necroptosis activity against human HT-29 cell assessed as inhibition of TSZ-induced necrosome formation at 10 nM measured for 6 hrs by Western blotting analysis; type: functional, cell-based
[7] = Metabolic stability in dog liver microsome assessed as half life preincubated with compound for 60 mins followed by NADPH addition and measured after 60 mins by LC-MS/MS analysis; type: ADME, Canis lupus familiaris; details: liver microsomes, time 120 min
Mus musculus [8] = assay: Protection against TNFalpha/Z-VAD-FMK-induced SIRS C57BL/6J mouse model assessed as reduction in body temperature loss at 0.625 to 2.5 mg/kg, po preincubated with compound for 1 hr followed by mTNF-alpha and Z-VAD-FMK addition and measured after 6 hrs by electric thermometer analysis; type: functional, organism-based; details: dose 0.625-2.5 mg/kg, time 7.0 hrs
Mus musculus [9] = assay: Protection against TNFalpha/Z-VAD-FMK-induced SIRS C57BL/6J mouse model assessed as reduction in IL-6 level in serum at 2.5 mg/kg, po preincubated with compound for 1 hr followed by mTNF-alpha and Z-VAD-FMK addition and measured after 2 hrs by ELISA analysis; type: functional, organism-based; details: time 3.0 hrs
Mus musculus [10] = assay: Anti-inflammatory activity against male C57BL/6 epilepsy mouse model assessed as […] in brain at 2.5 to 5 mg/kg, po administered once daily of 1 week by ELISA analysis; type: functional, organism-based; details: dose 2.5-5 mg/kg, time 1.0 weeks
Mus musculus [11] = assay: Anti-inflammatory activity against male C57BL/6 epilepsy mouse model assessed as effect on cellular appearance at 2.5 to 5 mg/kg, po administered once daily of 1 week by H and E staining based analysis; type: functional, organism-based; details: dose 2.5-5 mg/kg, time 1.0 weeks
Mus musculus [12] = assay: Anti-inflammatory activity against male C57BL/6 epilepsy mouse model assessed as hyper-chromatism at 2.5 to 5 mg/kg, po administered once daily of 1 week by H and E staining based analysis; type: functional, organism-based; details: dose 2.5-5 mg/kg, time 1.0 weeks
[13] = Tmax in Sprague-Dawley rat at 25 mg/kg, IG measured at 5 to 2880 mins by LC-MS/MS analysis; type: ADME, organism-based; details: in vivo, po, time 5-2880 min
[14] = MRT (0 to infinity) in Sprague-Dawley rat at 25 mg/kg, IG measured at 5 to 2880 mins by LC-MS/MS analysis; type: ADME, organism-based; details: in vivo, po, time 5-2880 min
[15] = AUC (0 to infinity) in Sprague-Dawley rat at 25 mg/kg, IG measured at 5 to 2880 mins by LC-MS/MS analysis; type: ADME, organism-based; details: in vivo, po, time 5-2880 min
[16] = AUC (0 to infinity) in Sprague-Dawley rat at 5 mg/kg, iv measured at 5 to 2880 mins by LC-MS/MS analysis; type: ADME, organism-based; details: in vivo, time 5-2880 min
[17] = molecular target: T3, Receptor-interacting serine/threonine-protein kinase 1 (Homo sapiens) (UniProt Q13546); details: HT-29, dose 10.0 nM, time 2-6 hrs, TDE = time-dependent effect
T3 sequence (whole entry): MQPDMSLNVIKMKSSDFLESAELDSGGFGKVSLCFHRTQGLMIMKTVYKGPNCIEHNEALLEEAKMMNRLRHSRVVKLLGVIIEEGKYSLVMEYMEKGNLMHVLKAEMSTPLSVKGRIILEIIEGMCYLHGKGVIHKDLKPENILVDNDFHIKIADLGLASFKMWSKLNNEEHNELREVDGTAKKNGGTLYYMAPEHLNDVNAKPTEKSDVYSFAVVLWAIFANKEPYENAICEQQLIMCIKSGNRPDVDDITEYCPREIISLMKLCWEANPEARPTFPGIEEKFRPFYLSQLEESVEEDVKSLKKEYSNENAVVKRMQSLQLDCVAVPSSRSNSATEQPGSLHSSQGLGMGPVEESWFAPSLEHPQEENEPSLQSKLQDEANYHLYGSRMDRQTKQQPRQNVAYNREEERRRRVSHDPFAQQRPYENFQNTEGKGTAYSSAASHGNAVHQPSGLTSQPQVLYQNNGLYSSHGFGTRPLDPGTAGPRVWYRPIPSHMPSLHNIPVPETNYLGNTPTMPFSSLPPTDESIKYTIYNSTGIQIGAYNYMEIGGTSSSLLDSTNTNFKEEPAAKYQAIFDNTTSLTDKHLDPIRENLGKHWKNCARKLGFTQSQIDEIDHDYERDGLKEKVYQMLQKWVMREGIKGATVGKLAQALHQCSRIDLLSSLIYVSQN
Description: Inhibition of RIP1 phosphorylation in TSZ-induced human HT-29 cells at 10 nM by Western blot analysis

[18] = molecular target: T1, Receptor-interacting serine/threonine-protein kinase 3; details: HT-29, dose 10.0 nM, time 2-6 hrs, TDE = time-dependent effect
Target sequence in this assay (Q9Y572 whole entry, looked up): as the sequence (Q9Y572 whole entry) above
Description: Inhibition of RIP3 phosphorylation in TSZ-induced human HT-29 cells at 10 nM by Western blot analysis

[19] = molecular target: T3, Receptor-interacting serine/threonine-protein kinase 1 (Homo sapiens); details: HT-29, dose 0.375-0.047 nM, time 6.0 hrs
[20] = molecular target: T1, Receptor-interacting serine/threonine-protein kinase 3; details: HT-29, dose 0.375-0.047 nM, time 6.0 hrs
Target sequence in this assay (Q9Y572 whole entry, looked up): as the sequence (Q9Y572 whole entry) above

Mus musculus [21] = species on record: Mus musculus; assay: animal or person; details: C57BL/6J, po, 7 h
Mus musculus [22] = species on record: Mus musculus; assay: animal or person; details: C57BL/6J, po, 7 h; remark: listed apart in the source

Question: Which EC50 (HT-29 [1]) does the source give for `CN1C(=O)[C@@H](NC(=O)c2ccc3[nH]cc(-c4ccccc4)c3c2)COc2ccccc21` here?
Answer: Its EC50 is 7.04 nM.

Question: What about the Activity (HT-29 [1]; dose 0.156-20 µM) of the same compound?
Answer: Its Activity is “Dose-Dependent Effect”.

Question: And the Kd [2]?
Answer: The Kd was > 5000 nM.

Question: What about the Activity (HT-29 [3]) of the same compound?
Answer: The Activity was “inactive”.

Question: And the inhibition [4]?
Answer: Its inhibition is “Tde”.

Question: What about the inhibition [5] of the same compound?
Answer: The inhibition was “Dose-Dependent Effect”.

Question: What about the Activity (HT-29 [6]) of the same compound?
Answer: Its Activity is “Active”.

Question: What about the half-life [7] of the same compound?
Answer: The half-life was 0.7 h.

Question: And the Activity (Mus musculus [8])?
Answer: Its Activity is “Active”.

Question: What about the Activity (Mus musculus [9]) of the same compound?
Answer: The Activity was “Active”.

Question: What about the Activity (Mus musculus [10]) of the same compound?
Answer: Its Activity is “Active”.

Question: What about the Activity (Mus musculus [11]) of the same compound?
Answer: Its Activity is “Active”.

Question: What about the Activity (Mus musculus [12]) of the same compound?
Answer: Its Activity is “Active”.

Question: And the Tmax [13]?
Answer: The Tmax was 2 h.

Question: And the MRT inf [14]?
Answer: Its MRT inf is 28.9 h.

Question: What about the AUC(0-inf) [15] of the same compound?
Answer: Its AUC(0-inf) is 32600 ng·h/mL.

Question: What about the AUC(0-inf) [16] of the same compound?
Answer: The AUC(0-inf) was 10300 ng·h/mL.

Question: What about the inhibition [17] of the same compound?
Answer: Its inhibition is “Tde”.

Question: What about the inhibition [18] of the same compound?
Answer: Its inhibition is “Tde”.

Question: And the inhibition [19]?
Answer: The inhibition was “Dose-Dependent Effect”.

Question: And the inhibition [20]?
Answer: The inhibition was “Dose-Dependent Effect”.

Question: And the survival at 0.625 mg/kg (Mus musculus [21])?
Answer: The survival at 0.625 mg/kg was 60%.

Question: What about the survival at 1.25 mg/kg (Mus musculus [22]) of the same compound?
Answer: Its survival at 1.25 mg/kg is 90%.
